Test results reported in US10005733B2, “N-(4-hydroxy-4-methyl-cyclohexyl)-4-phenyl-benzenesulfonamide and N-(4-hydroxy-4-methyl-cyclohexyl)-4-(2-pyridyl)-benzenesulfonamide compounds and their therapeutic use” (PIMCO 2664 LIMITED, priority 2014, dated 2018).

How the values were obtained:
J774 macrophages = experiment: Resazurin Macrophage J774 Viability Assay; type: cell-based; conditions: Mus musculus
Description: Potency was assessed using a viability assay based on the survival of the J774 macrophage cell line. Macrophages are closely related to osteoclasts and have been used previously as a model system for osteoclast survival (see, e.g., Luckman et al., 1998, “Heterocycle-containing bisphosphonates cause apoptosis and inhibit bone resorption by preventing protein prenylation: evidence from structure-activity relationships in J774 macrophages,” J. Bone Miner. Res., Vol. 13, pp. 1668-1678). The model is indicative both of effects on bone protection in diseases such as osteoporosis, osteoarthritis and rheumatoid arthritis, and of effects on inflammation since, like osteoclasts, J774 macrophages are dependent for survival on continued NFκB activation.
In vitro potency of test compounds was determined by incubation with J774 macrophages and subsequent determination of cell viability using resazurin.
Resazurin is a redox dye commonly used as an indicator of viability in cultured cells (see, e.g., Anoopkumar-Dukie, 2005, “Resazurin assay of radiation response in cultured cells”, British Journal of Radiology, Vol. 78, pp. 945-947). It is non-toxic to cells and stable in culture medium, allowing continuous measurement of cell proliferation in vitro as either a kinetic or endpoint assay. The assay is based on the ability of viable, metabolically-active cells to reduce resazurin (which is blue and non-fluorescent) to resorufin and dihydroresorufin (which are red and fluorescent) using electrons from reducing species, such as nicotinamide […] and flavin adenine dinucleotide (FADH). This transformation, from oxidised form to reduced form, can be measured either colorimetrically or fluorometrically. Insults that impair cell viability and proliferation also affects the capacity of cells to reduce resazurin, and the rate of dye reduction is directly proportional to the number of viable cells present.
For fluorescence measurements, 530-560 nm excitation and 590 nm emission wavelengths are typically used. For colorimetric measurements, absorbance at 570 nm (reduced form) and 600 nm (oxidised form) is typically measured. A simple calculation is performed to determine the relative quantities of the two species: a high ratio of resorufin (the reduced form) to resazurin (the oxidised form) is an indicator that cells are proliferating and viable. A low ratio indicates cells that are quiescent or non-viable.
J774 cells were plated at 10^4 cells per well in 100 μL αMEM (α Modified Eagle Medium) in 96-well plates and allowed to adhere overnight. The following day, test compounds were prepared as 100 mM solutions in DMSO. These stock solutions were diluted in DMSO and then diluted 1000× in culture medium (αMEM) before being added directly to the wells so as to give the desired final compound concentration. After a 72 hour incubation at 37° C./5% CO2, resazurin (Alamar Blue, Biosource International) was added to each well (1:10 v/v, 10 μL). The plate was then incubated at 37° C. for 3 hours and fluorescence was measured at 590 nm, with a 25 nm bandwidth.
The average results for each test compound were expressed as a percent (%) of the average control value reflecting cell viability. The average values across the concentrations tested were then plotted and an IC50 was calculated by fitting the data to a 4-parameter IC50 equation using either Graph Pad Prism software for Windows (Graph Pad Software, San Diego Calif. USA) or Grafit version 5 (Erithacus Software). Each experiment was repeated twice and the data are presented as the mean IC50 from both experiments.

hERG ion channel = target: T1, hERG ion channel (Homo sapiens, UniProt Q12809); experiment: hERG Ion Channel Assay (Q-patch, hERG-CHO cells); type: cell-based; conditions: CHO cells stably transfected with hERG (hERG-CHO), pH 7.4, hERG tail current
T1 construct: expressed in transfected cells; host or cells: Chinese Hamster Ovary cells (hERG-CHO)
T1 sequence (Q12809 whole entry): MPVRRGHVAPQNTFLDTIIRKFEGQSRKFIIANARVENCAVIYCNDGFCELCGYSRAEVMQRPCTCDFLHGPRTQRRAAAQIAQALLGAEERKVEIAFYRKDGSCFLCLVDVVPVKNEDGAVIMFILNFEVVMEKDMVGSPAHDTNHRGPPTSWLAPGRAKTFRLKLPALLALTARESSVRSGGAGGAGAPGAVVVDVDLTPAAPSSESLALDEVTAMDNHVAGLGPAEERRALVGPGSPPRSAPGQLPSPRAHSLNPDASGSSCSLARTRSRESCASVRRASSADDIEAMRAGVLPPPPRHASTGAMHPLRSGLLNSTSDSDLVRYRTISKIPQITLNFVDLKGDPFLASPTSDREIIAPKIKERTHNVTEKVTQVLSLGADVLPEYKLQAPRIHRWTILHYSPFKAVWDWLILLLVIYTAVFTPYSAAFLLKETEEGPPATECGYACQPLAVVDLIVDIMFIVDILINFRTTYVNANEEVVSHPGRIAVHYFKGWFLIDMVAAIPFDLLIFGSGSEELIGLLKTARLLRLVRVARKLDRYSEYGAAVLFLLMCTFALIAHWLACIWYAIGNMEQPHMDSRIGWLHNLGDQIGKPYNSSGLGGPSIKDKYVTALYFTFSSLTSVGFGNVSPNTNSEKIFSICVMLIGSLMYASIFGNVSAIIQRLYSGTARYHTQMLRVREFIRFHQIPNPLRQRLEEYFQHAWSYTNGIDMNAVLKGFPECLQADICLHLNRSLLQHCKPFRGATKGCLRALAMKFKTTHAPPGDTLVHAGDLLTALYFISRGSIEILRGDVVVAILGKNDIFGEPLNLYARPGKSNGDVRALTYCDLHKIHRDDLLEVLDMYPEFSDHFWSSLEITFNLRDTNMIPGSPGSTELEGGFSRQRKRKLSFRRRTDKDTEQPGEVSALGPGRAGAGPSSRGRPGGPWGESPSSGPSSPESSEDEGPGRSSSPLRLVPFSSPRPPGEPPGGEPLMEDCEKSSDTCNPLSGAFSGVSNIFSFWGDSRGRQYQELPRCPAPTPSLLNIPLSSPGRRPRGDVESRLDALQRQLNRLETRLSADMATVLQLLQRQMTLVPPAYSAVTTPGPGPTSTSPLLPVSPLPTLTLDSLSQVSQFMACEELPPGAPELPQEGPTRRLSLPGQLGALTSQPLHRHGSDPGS
Description: The activity of the compounds against the hERG ion channel was tested. The assay was conducted using the automated path-clamp, Q-patch method using stably transfected Chinese Hamster Ovary cells (hERG-CHO). hERG-CHO cells were cultured in F-12 Kaighn's Nutrient Mixture medium (Invitrogen)+10% FBS at 37° C. for 1-3 days. Cells were kept at 30° C. for 24 to 48 hours prior to patch clamping in order to increase the hERG current amplitude. Subsequently, the cells were harvested by trypsinisation, and kept in Serum Free Medium (SFM) in the Q-patch cell preparation state for up to 6 hours at room temperature before being washed and re-suspended in extracellular solution and applied to the patch clamp sites for data recording.
Patch-clamp voltage protocol: After whole cell configuration was achieved, the cell was held at −80 mV. A 50 millisecond pulse to −40 mV was delivered to measure the leaking current, which was subtracted from the tail current on-line. Then the cell was depolarized to +20 mV for 2 seconds, followed by a one second pulse to −40 mV to reveal hERG tail current. This paradigm was delivered once every 5 seconds to monitor the current amplitude.
Extracellular solution: 137 mM NaCl, 4 mM KCl, 1.8 mM CaCl2, 1 mM MgCl2, 10 mM D(+)-glucose, 10 mM HePES buffer (pH adjusted to 7.4 with NaOH).
After the whole cell configuration was achieved, the extracellular solution (control) was applied first and the cell was stabilized for 2 minutes in extracellular solution. The test compound was then applied from low concentrations to high concentrations cumulatively. The cell was incubated with each test concentration for 5 minutes. During each incubation, the cell was repetitively stimulated using the voltage protocol described above, and the tail current amplitude was continuously monitored.
The degree of inhibition (%) was obtained by measuring the tail current amplitude, induced by a one second test pulse to −40 mV after a two second pulse to +20 mV, before and after incubation with the test compound. The difference in current was normalized to control and multiplied by 100 in order to obtain the percent inhibition.
Concentration (log) response curves were fitted to a logistic equation (three parameters assuming complete block of the current at very high test compound concentrations) to generate estimates of the 50% inhibitory concentration (IC50). The concentration-response relationship of each compound was constructed from the percentage reductions of current amplitude by sequential concentrations.

[1] = J774, 72 h, footnote (1): 10 point range 30 μM to 1.5 nM, n = 3 per concentration, Grafit, 72 hour incubation
[2] = J774, footnote (2): 12 point range 10 μM to 0.5 nM, n = 4 per concentration, GraphPad Prism, average of original and new experiments where replicates increased

Row | Structure (SMILES) | IC50 (J774 macrophages; [1]) | IC50 (J774 macrophages; [2]) | inhibition at 5 min, 10 µM (hERG ion channel) | IC50 (J774 macrophages; J774, first column (original replicates, n = 2), footnote (2): 12 point range 10 μM to 0.5 nM, GraphPad Prism)
1 | C[C@]1(O)CC[C@H](NS(=O)(=O)c2ccc(-c3ccc(F)cc3F)cc2)CC1 [ABD900] | 3640 nM | 2910 nM | 15.1% | 
2 | C[C@]1(O)CC[C@H](NS(=O)(=O)c2ccc(-c3ccc(C#N)cc3Cl)cc2)CC1 [HMC-C-09-A, 2′-Chloro-4′-cyano-N-((1r,4r)-4-hydroxy-4-methylcyclohexyl)-[1,1′-biphenyl]-4-sulfonamide] |  | 690 nM | 57% | 
3 | C[C@]1(O)CC[C@H](NS(=O)(=O)c2ccc(-c3ncc(Cl)cc3C#N)cc2)CC1 [HMC-N-05-A, 4-(5-Chloro-3-cyanopyridin-2-yl)-N-((1r,4r)-4-hydroxy-4-methylcyclohexyl)benzenesulfonamide] |  | 1820 nM | 35% | 
4 | C[C@]1(O)CC[C@H](NS(=O)(=O)c2ccc(-c3ccc(Cl)cc3C#N)c(F)c2)CC1 [HMC-C-08-A, 4′-Chloro-2′-cyano-2-fluoro-N-((1r,4r)-4-hydroxy-4-methylcyclohexyl)-[1,1′-biphenyl]-4-sulfonamide] |  | 1250 nM | 29% | 
5 | Cc1cc(S(=O)(=O)N[C@H]2CC[C@H](O)CC2)ccc1-c1ccc(F)cc1F [ABD735, reference compound] | 70 nM | 110 nM |  | 
6 | C[C@]1(O)CC[C@@H](NS(=O)(=O)c2ccc(-c3cc(F)c(F)cc3F)cc2)CC1 [HMC-C-10-B, 2′,4′,5′-Trifluoro-N-((1s,4s)-4-hydroxy-4-methylcyclohexyl)-[1,1′-biphenyl]-4-sulfonamide] |  | 540 nM |  | 
7 | C[C@]1(O)CC[C@H](NS(=O)(=O)c2ccc(-c3ccc(C#N)cc3)c(F)c2)CC1 [HMC-C-07-A, 4′-Cyano-2-fluoro-N-((1r,4r)-4-hydroxy-4-methylcyclohexyl)-[1,1′-biphenyl]-4-sulfonamide] |  | 1660 nM | 47% | 
8 | O=S(=O)(N[C@H]1CC[C@H](O)CC1)c1ccc(-c2ccc(F)cc2F)cc1 [ABD599, reference compound] | 410 nM |  | 74.9% | 
9 | C[C@]1(O)CC[C@@H](NS(=O)(=O)c2ccc(-c3ccc(F)cc3F)cc2)CC1 [ABD899, reference compound] | 270 nM | 210 nM | 85.2% | 
10 | C[C@]1(O)CC[C@@H](NS(=O)(=O)c2ccc(-c3ccc(C#N)cc3)c(F)c2)CC1 [HMC-C-07-B, 4′-Cyano-2-fluoro-N-((1s,4s)-4-hydroxy-4-methylcyclohexyl)-[1,1′-biphenyl]-4-sulfonamide] |  | 96 nM | 40% | 90 nM
11 | C[C@]1(O)CC[C@H](NS(=O)(=O)c2ccc(-c3ccc(Cl)cc3C#N)c(Cl)c2)CC1 [HMC-C-11-A, 2,4′-Dichloro-2′-cyano-N-((1r,4r)-4-hydroxy-4-methylcyclohexyl)-[1,1′-biphenyl]-4-sulfonamide] |  | 1460 nM |  | 
